Data reported in patent publication US8383584B2, “HCV inhibiting macrocyclic phenylcarbamates” (Medivir AB, priority 2007, dated 2013).

Test system: HCV replicons (Huh-7 luc/neo cells, NS3-NS5B regions of HCV type 1b)
Experiment: Replicon assay (Huh-Luc luciferase, HCV RNA replication)
Assay type: cell-based
Settings: Hepatitis C virus, Huh-7, 72 h, read-out: EC50 Replicon assay
From the text: The compounds of formula (I) were examined for activity in the inhibition of HCV RNA replication in a cellular assay. […] The cellular assay was based on a bicistronic expression construct, as described by Lohmann et al. (1999) Science vol. 285 pp. 110-113 with modifications described by Krieger et al. (2001) Journal of Virology 75: 4614-4624, in a multi-target screening strategy. In essence, the method was as follows.
The assay utilized the stably transfected cell line Huh-7 luc/neo (hereafter referred to as Huh-Luc). This cell line harbors an RNA encoding a bicistronic expression construct comprising the wild type NS3-NS5B regions of HCV type 1b translated from an Internal Ribosome Entry Site (IRES) from encephalomyocarditis virus (EMCV), preceded by a reporter portion (FfL-luciferase), and a selectable marker portion (neo^R, neomycine phosphotransferase). The construct is bordered by 5′ and 3′ NTRs (non-translated regions) from HCV type 1b. Continued culture of the replicon cells in the presence of G418 (neo^R) is dependent on the replication of the HCV RNA. The stably transfected replicon cells that express HCV RNA, which replicates autonomously and to high levels, encoding inter alia luciferase, are used for screening the antiviral compounds.
The replicon cells were plated in 384 well plates in the presence of the test and control compounds which were added in various concentrations. Following an incubation of three days, HCV replication was measured by assaying luciferase activity (using standard luciferase assay substrates and reagents and a Perkin Elmer ViewLux™ ultraHTS microplate imager). Replicon cells in the control cultures have high luciferase expression in the absence of any inhibitor. The inhibitory activity of the compound on luciferase activity was monitored on the Huh-Luc cells, enabling a dose-response curve for each test compound. EC50 values were then calculated, which value represents the amount of the compound required to decrease by 50% the level of detected luciferase activity, or more specifically, the ability of the genetically linked HCV replicon RNA to replicate.

CN1CCCC/C=C\[C@@H]2C[C@@]2(C(=O)NS(=O)(=O)C2(C)CC2)NC(=O)[C@@H]2C[C@@H](OC(=O)Nc3cccc(N(C)C)c3)C[C@H]2C1=O [Example 9, (3-Dimethylaminophenyl)-carbamic acid 13-methyl-4-(1-methyl-cyclopropane-sulfonylaminocarbonyl)-2,14-dioxo-3,13-diaza-tricyclo[13.3.0.0*4,6*]octadec-7-en-17-yl ester] gave an EC50 of 1000 to 10000 nM.

Same assay, conditions: Hepatitis C virus, Huh-7, 72 h; Huh-Luc cells, three days incubation, luciferase activity; read-out: EC50 Replicon assay

First: COc1ccccc1NC(=O)O[C@@H]1C[C@H]2C(=O)N[C@]3(C(=O)NS(=O)(=O)C4CC4)C[C@H]3/C=C\CCCCN(C)C(=O)[C@@H]2C1 [Example 3, (2-Methoxy-phenyl)-carbamic acid 4-cyclopropanesulfonylaminocarbonyl-13-methyl-2,14-dioxo-3,13-diaza-tricyclo[13.3.0.0*4,6*]octadec-7-en-17-yl ester]
Second: CN1CCCCC=CC2CC2(C(=O)NS(=O)(=O)C2CC2)NC(=O)C2CC(OC(=O)Nc3ccccc3C#N)CC2C1=O (stereo not drawn) [Example 1, (2-Cyanophenyl)-carbamic acid 4-cyclopropanesulfonylaminocarbonyl-13-methyl-2,14-dioxo-3,13-diaza-tricyclo[13.3.0.0*4,6*]octadec-7-en-17-yl ester]
The EC50 of the first is lower: 1000 to 10000 nM for the first, > 10000 nM for the second.

COC(=O)c1cccc(NC(=O)O[C@@H]2C[C@H]3C(=O)N[C@]4(C(=O)NS(=O)(=O)C5CC5)C[C@H]4/C=C\CCCCN(C)C(=O)[C@@H]3C2)c1 [Example 5, 3-(4-Cyclopropanesulfonylaminocarbonyl-13-methyl-2,14-dioxo-3,13-diaza-tricyclo-[13.3.0.0*4,6*]octadec-7-en-17-yloxycarbonylamino)-benzoic acid methyl ester] and COc1cccc(NC(=O)O[C@@H]2C[C@H]3C(=O)N[C@]4(C(=O)NS(=O)(=O)C5CC5)C[C@H]4/C=C\CCCCN(C)C(=O)[C@@H]3C2)c1 [Example 10, (3-Methoxyphenyl)-carbamic acid 4-cyclopropanesulfonylaminocarbonyl-13-methyl-2,14-dioxo-3,13-diaza-tricyclo[13.3.0.0*4,6*]octadec-7-en-17-yl ester] fall in the same range of EC50: 1000 to 10000 nM for the first, 1000 to 10000 nM for the second.

First: COc1cccc(NC(=O)O[C@@H]2C[C@H]3C(=O)N[C@]4(C(=O)NS(=O)(=O)C5(C)CC5)C[C@H]4/C=C\CCCCN(C)C(=O)[C@@H]3C2)c1 [Example 14, (3-Methoxy-phenyl)-carbamic acid 13-methyl-4-(1-methyl-cyclopropanesulfonyl-aminocarbonyl)-2,14-dioxo-3,13-diaza-tricyclo[13.3.0.0*4,6*]octadec-7-en-17-yl ester]
Second: CN1CCCC/C=C\[C@@H]2C[C@@]2(C(=O)NS(=O)(=O)C2(C)CC2)NC(=O)[C@@H]2C[C@@H](OC(=O)Nc3cccc(C#N)c3)C[C@H]2C1=O [Example 13, (3-Cyanophenyl)-carbamic acid 13-methyl-4-(1-methylcyclopropanesulfonylamino-carbonyl)-2,14-dioxo-3,13-diaza-tricyclo[13.3.0.0*4,6*]octadec-7-en-17-yl ester]
The EC50 of the first is higher: 200 to 990 nM for the first, 0.5 to 199 nM for the second. The second is the more potent here.

CN1CCCC/C=C\[C@@H]2C[C@@]2(C(=O)NS(=O)(=O)C2CC2)NC(=O)[C@@H]2C[C@@H](OC(=O)Nc3ccccc3Oc3ccccc3)C[C@H]2C1=O [Example 2, (2-Phenoxyphenyl)-carbamic acid 4-cyclopropanesulfonylaminocarbonyl-13-methyl-2,14-dioxo-3,13-diaza-tricyclo[13.3.0.0*4,6*]octadec-7-en-17-yl ester] and CN1CCCC/C=C\[C@@H]2C[C@@]2(C(=O)NS(=O)(=O)C2CC2)NC(=O)[C@@H]2C[C@@H](OC(=O)Nc3cccc(Oc4ccccc4)c3)C[C@H]2C1=O [Example 11, (3-Phenoxy-phenyl)-carbamic acid 4-cyclopropanesulfonylaminocarbonyl-13-methyl-2,14-dioxo-3,13-diaza-tricyclo[13.3.0.0*4,6*]octadec-7-en-17-yl ester] fall in the same range of EC50: 1000 to 10000 nM for the first, 1000 to 10000 nM for the second.

Compared with Cc1cccc(NC(=O)O[C@@H]2C[C@H]3C(=O)N[C@]4(C(=O)NS(=O)(=O)C5CC5)C[C@H]4/C=C\CCCCN(C)C(=O)[C@@H]3C2)c1 [Example 15, m-Tolyl-carbamic acid 4-cyclopropanesulfonylaminocarbonyl-13-methyl-2,14-dioxo-3,13-diaza-tricyclo[13.3.0.0*4,6*]octadec-7-en-17-yl ester], CN1CCCC/C=C\[C@@H]2C[C@@]2(C(=O)NS(=O)(=O)C2CC2)NC(=O)[C@@H]2C[C@@H](OC(=O)Nc3cccc(C#N)c3)C[C@H]2C1=O [Example 12, (3-Cyano-phenyl)-carbamic acid 4-cyclopropanesulfonylaminocarbonyl-13-methyl-2,14-dioxo-3,13-diaza-tricyclo[13.3.0.0*4,6*]octadec-7-en-17-yl ester] is lower in EC50: > 10000 nM for the first, 200 to 990 nM for the second.

Cc1nc(-c2cccc(NC(=O)O[C@@H]3C[C@H]4C(=O)N[C@]5(C(=O)NS(=O)(=O)C6CC6)C[C@H]5/C=C\CCCCN(C)C(=O)[C@@H]4C3)c2)cs1 [Example 17, [3-(2-Methyl-thiazol-4-yl)-phenyl]-carbamic acid 4-cyclopropanesulfonylamino-carbonyl-13-methyl-2,14-dioxo-3,13-diaza-tricyclo[13.3.0.0*4,6*]octadec-7-en-17-yl ester] and Cc1ccc(F)c(NC(=O)O[C@@H]2C[C@H]3C(=O)N[C@]4(C(=O)NS(=O)(=O)C5CC5)C[C@H]4/C=C\CCCCN(C)C(=O)[C@@H]3C2)c1 [Example 16, (2-Fluoro-5-methyl-phenyl)-carbamic acid 4-cyclopropanesulfonylaminocarbonyl-13-methyl-2,14-dioxo-3,13-diaza-tricyclo[13.3.0.0*4,6*]octadec-7-en-17-yl ester] fall in the same range of EC50: 1000 to 10000 nM for the first, 1000 to 10000 nM for the second.

First: Cc1ccc(C#N)c(NC(=O)O[C@@H]2C[C@H]3C(=O)N[C@]4(C(=O)NS(=O)(=O)C5CC5)C[C@H]4/C=C\CCCCN(C)C(=O)[C@@H]3C2)c1 [Example 18, (2-Cyano-5-methyl-phenyl)-carbamic acid 4-cyclopropanesulfonylaminocarbonyl-13-methyl-2,14-dioxo-3,13-diaza-tricyclo[13.3.0.0*4,6*]octadec-7-en-17-yl ester]
Second: COc1ccc(C#N)cc1NC(=O)OC1CC2C(=O)NC3(C(=O)NS(=O)(=O)C4(C)CC4)CC3C=CCCCCN(C)C(=O)C2C1 (stereo not drawn) [Example 6c, (5-Cyano-2-methoxy-phenyl)-carbamic acid 13-methyl-4-(1-methyl-cyclopropanesulfonylaminocarbonyl)-2,14-dioxo-3,13-diaza-tricyclo[13.3.0.0*4,6*]-octadec-7-en-17-yl ester]
The EC50 of the first is lower: 200 to 990 nM for the first, > 10000 nM for the second. The first is the more potent here.

Biological target: T1, HCV NS3/4A protease complexes (full-length hepatitis C NS3 protease enzyme) (Hepatitis C virus genotype 1a, UniProt P27958)
T1 construct: full-length hepatitis C NS3 protease enzyme
T1 sequence (P27958 1027-1657, one chain of several): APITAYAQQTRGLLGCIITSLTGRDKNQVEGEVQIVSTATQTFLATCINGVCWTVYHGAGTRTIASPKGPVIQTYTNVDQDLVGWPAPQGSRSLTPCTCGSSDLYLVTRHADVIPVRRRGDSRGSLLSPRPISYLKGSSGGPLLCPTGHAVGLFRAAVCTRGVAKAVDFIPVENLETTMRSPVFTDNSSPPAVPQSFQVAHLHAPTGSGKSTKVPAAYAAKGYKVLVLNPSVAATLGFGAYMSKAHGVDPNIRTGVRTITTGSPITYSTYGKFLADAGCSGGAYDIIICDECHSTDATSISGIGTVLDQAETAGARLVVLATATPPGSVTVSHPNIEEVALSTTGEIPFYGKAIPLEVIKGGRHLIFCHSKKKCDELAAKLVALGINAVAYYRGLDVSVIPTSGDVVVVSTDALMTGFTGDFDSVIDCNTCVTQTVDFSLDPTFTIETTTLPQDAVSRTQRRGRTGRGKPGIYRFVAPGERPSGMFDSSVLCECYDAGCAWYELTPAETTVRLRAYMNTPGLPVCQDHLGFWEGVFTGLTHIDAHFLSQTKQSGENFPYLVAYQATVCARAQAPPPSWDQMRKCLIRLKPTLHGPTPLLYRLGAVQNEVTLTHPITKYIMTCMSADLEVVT
Experiment: Inhibition assay (enzyme assay), depsipeptide substrate hydrolysis with NS4A cofactor
Assay type: biochemical
Settings: 1 nM enzyme, 25 μM NS4A cofactor, 0.5 μM substrate, 30° C.
Description: The aim of this in vitro assay was to measure the inhibition of HCV NS3/4A protease complexes by the compounds of the present invention. This assay provides an indication of how effective compounds of the present invention would be in inhibiting HCV NS3/4A proteolytic activity.
The inhibition of full-length hepatitis C NS3 protease enzyme was measured essentially as described in Poliakov, 2002 Prot Expression & Purification 25 363 371. Briefly, the hydrolysis of a depsipeptide substrate, Ac-DED(Edans)EEAbuψ[COO]ASK(Dabcyl)-NH2 (AnaSpec, San José, USA), was measured spectrofluorometrically in the presence of a peptide cofactor, KKGSVVIVGRIVLSGK (Åke Engström, Department of Medical Biochemistry and Microbiology, Uppsala University, Sweden). [Landro, 1997 #Biochem 36 9340-9348]. The enzyme (1 nM) was incubated in 50 mM HEPES, pH 7.5, 10 mM DTT, 40% glycerol, 0.1% n-octyl-D-glucoside, with 25 μM NS4A cofactor and inhibitor at 30° C. for 10 min, whereupon the reaction was initiated by addition of 0.5 μM substrate. Inhibitors were dissolved in DMSO, sonicated for 30 sec. and vortexed. The solutions were stored at −20° C. between measurements.
The final concentration of DMSO in the assay sample was adjusted to 3.3%. The rate of hydrolysis was corrected for inner filter effects according to published procedures [Liu, Analytical Biochemistry, 1999, vol. 267, pp. 331-335]. Ki values were estimated by non-linear regression analysis (GraFit, Erithacus Software, Staines, MX, UK), using a model for competitive inhibition and a fixed value for Km (0.15 μM). A minimum of two replicates was performed for all measurements.

First: COc1ccccc1NC(=O)O[C@@H]1C[C@H]2C(=O)N[C@]3(C(=O)NS(=O)(=O)C4CC4)C[C@H]3/C=C\CCCCN(C)C(=O)[C@@H]2C1 [Example 3, (2-Methoxy-phenyl)-carbamic acid 4-cyclopropanesulfonylaminocarbonyl-13-methyl-2,14-dioxo-3,13-diaza-tricyclo[13.3.0.0*4,6*]octadec-7-en-17-yl ester]
Second: CN1CCCCC=CC2CC2(C(=O)NS(=O)(=O)C2CC2)NC(=O)C2CC(OC(=O)Nc3ccccc3C#N)CC2C1=O (stereo not drawn) [Example 1, (2-Cyanophenyl)-carbamic acid 4-cyclopropanesulfonylaminocarbonyl-13-methyl-2,14-dioxo-3,13-diaza-tricyclo[13.3.0.0*4,6*]octadec-7-en-17-yl ester]
The Ki of the first is lower: 0.1 to 29.9 nM for the first, 30 to 100 nM for the second. The first binds more tightly here.

CN1CCCC/C=C\[C@@H]2C[C@@]2(C(=O)NS(=O)(=O)C2CC2)NC(=O)[C@@H]2C[C@@H](OC(=O)Nc3ccccc3Oc3ccccc3)C[C@H]2C1=O [Example 2, (2-Phenoxyphenyl)-carbamic acid 4-cyclopropanesulfonylaminocarbonyl-13-methyl-2,14-dioxo-3,13-diaza-tricyclo[13.3.0.0*4,6*]octadec-7-en-17-yl ester] showed a Ki of 0.1 to 29.9 nM.
